Source: BindingDB's records for doi:10.1016/j.ejmech.2017.08.046 (University of Torino, 2017)
pIC50: −log10 of the molar value.

What follows are compounds tested against Prostaglandin G/H synthase 2 (Homo sapiens) (UniProt P35354) (assay: Inhibition of human COX2 assessed as reduction in PGF2alpha production by ELISA).
Sequence of Prostaglandin G/H synthase 2 (Homo sapiens) (P35354 whole entry, looked up): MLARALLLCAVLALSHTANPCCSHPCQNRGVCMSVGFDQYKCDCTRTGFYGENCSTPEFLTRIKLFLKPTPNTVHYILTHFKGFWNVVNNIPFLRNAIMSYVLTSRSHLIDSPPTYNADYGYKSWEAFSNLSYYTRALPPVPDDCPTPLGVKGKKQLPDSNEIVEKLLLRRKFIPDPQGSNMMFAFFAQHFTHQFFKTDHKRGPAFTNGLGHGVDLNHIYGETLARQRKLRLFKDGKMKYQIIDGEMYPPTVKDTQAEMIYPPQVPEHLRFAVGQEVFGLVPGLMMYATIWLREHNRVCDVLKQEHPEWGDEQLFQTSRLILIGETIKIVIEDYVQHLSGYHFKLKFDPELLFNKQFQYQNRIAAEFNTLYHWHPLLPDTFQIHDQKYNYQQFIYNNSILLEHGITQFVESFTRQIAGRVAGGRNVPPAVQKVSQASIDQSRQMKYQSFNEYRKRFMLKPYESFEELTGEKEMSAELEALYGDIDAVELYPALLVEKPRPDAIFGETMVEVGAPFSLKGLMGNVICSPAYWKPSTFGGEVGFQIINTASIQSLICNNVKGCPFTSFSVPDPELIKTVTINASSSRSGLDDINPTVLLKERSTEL

| pIC50 | SMILES |
| --- | --- |
| < 4.00 | O=C(Nc1cccc(C(F)(F)F)c1)c1c(O)nnn1CC1CC1 |
| < 4.00 | COc1ccc(Cn2nnc(O)c2C(=O)Nc2cccc(C(F)(F)F)c2)cc1 |
| < 4.00 | O=C(Nc1cccc(C(F)(F)F)c1)c1c(O)nnn1Cc1ccccc1 |
